Results published in patent US4742053A, “3-Isoquinoliniomethyl cephalosporin derivatives” (Banyu Pharmaceutical Co., Ltd., priority 1984, dated 1988).
Converted amounts (≈) assume the structure as drawn. Like-named read-outs stand apart in the source and are kept apart here.

What was measured:
Assay in all cases: MIC by agar plate dilution method
Assay type in all cases: cell-based
A. calcoaceticus No. 14 = conditions: 10^6 CFU/ml; for MIC: Acinetobacter calcoaceticus, NO.14, A. calcoaceticus No. 14, read-out: Minimum Inhibitory Concentration
Procedure: (§1) The minimum inhibitory concentrations (MIC: μg/ml) of the compounds of the present invention against various microorganisms were measured by an agar plate dilution method (inoculum size: 10^6 CFU/ml) by using Sensitivity Disk Agar (Nissui) in comparison with Cefotaxime and Ceftazidime as comparative compounds.
(§2) Minimum Inhibitory Concentration (μg/ml; 10^6 CFU/ml)

C. freundii No. 7 = conditions: C. freundii No. 7, 10^6 CFU/ml; for MIC: Citrobacter freundii, read-out: Minimum Inhibitory Concentration
Procedure: as §1, §2

E. cloaceae Nek 39 = conditions: E. cloaceae Nek 39, 10^6 CFU/ml; for MIC: read-out: Minimum Inhibitory Concentration
Procedure: as §1, §2

E. coli C/Rms149 = conditions: 10^6 CFU/ml; for MIC: Escherichia coli, read-out: Minimum Inhibitory Concentration, E. coli C/Rms149
Procedure: as §1, §2

E. coli CSH2 = conditions: 10^6 CFU/ml; for MIC: Escherichia coli, read-out: Minimum Inhibitory Concentration
Procedure: as §1, §2

E. coli CSH = conditions: 10^6 CFU/ml; for MIC: Escherichia coli, read-out: Minimum Inhibitory Concentration
Procedure: as §1, §2

E. coli ML1410/Rte16 = conditions: 10^6 CFU/ml; for MIC: Escherichia coli, ML1410/RTE16, read-out: Minimum Inhibitory Concentration, E. coli ML1410/Rte16
Procedure: as §1, §2

E. coli NIHJJC-2 = conditions: 10^6 CFU/ml; for MIC: Escherichia coli, NIHJJC2, E. coli NIHJJC-2, read-out: Minimum Inhibitory Concentration
Procedure: as §1, §2

E. coli W3630/Rms212 = conditions: 10^6 CFU/ml; for MIC: Escherichia coli, W3630/RMS212, read-out: Minimum Inhibitory Concentration, E. coli W3630/Rms212
Procedure: as §1, §2

E. coli W3630/Rms213 = conditions: 10^6 CFU/ml; for MIC: Escherichia coli, W3630/RMS213, read-out: Minimum Inhibitory Concentration, E. coli W3630/Rms213
Procedure: as §1, §2

K. pneumoniae No. 42 = conditions: K. pneumoniae No. 42, 10^6 CFU/ml; for MIC: Klebsiella pneumoniae, read-out: Minimum Inhibitory Concentration
Procedure: as §1, §2

P. aeruginosa AK109 = conditions: 10^6 CFU/ml; for MIC: Pseudomonas aeruginosa, AK109, P. aeruginosa AK109, read-out: Minimum Inhibitory Concentration; for Minimum Inhibitory Concentration: P. aeruginosa AK109
Procedure: as §1, §2

P. aeruginosa AKR17 = conditions: 10^6 CFU/ml; for MIC: Pseudomonas aeruginosa, AKR17, P. aeruginosa AKR17, read-out: Minimum Inhibitory Concentration
Procedure: as §1, §2

P. cepacia 23 = conditions: P. cepacia 23, 10^6 CFU/ml; for MIC: Burkholderia cepacia, read-out: Minimum Inhibitory Concentration
Procedure: as §1, §2

P. maltophilia IID 1275 = conditions: Stenotrophomonas maltophilia, IID1275; P. maltophilia IID 1275; 10^6 CFU/ml; read-out: Minimum Inhibitory Concentration
Procedure: as §1, §2

P. mirabilis JY10 = conditions: P. mirabilis JY10, 10^6 CFU/ml; for MIC: Proteus mirabilis, read-out: Minimum Inhibitory Concentration
Procedure: as §1, §2

P. vulgaris No. 33 = conditions: P. vulgaris No. 33, 10^6 CFU/ml; for MIC: Proteus vulgaris, read-out: Minimum Inhibitory Concentration
Procedure: as §1, §2

P. vulgaris OB1043 = conditions: 10^6 CFU/ml; for MIC: Proteus vulgaris, OB1043, P. vulgaris OB1043, read-out: Minimum Inhibitory Concentration
Procedure: as §1, §2

S. aureus JS-1 = conditions: S. aureus JS-1, 10^6 CFU/ml; for MIC: Staphylococcus aureus, JS1, read-out: Minimum Inhibitory Concentration
Procedure: as §1, §2

S. aureus NIHJJC-1 = conditions: for MIC: Staphylococcus aureus
Procedure: as §1, §2

S. marcescens No. 16-2 = conditions: S. marcescens No. 16-2, 10^6 CFU/ml; for MIC: Serratia marcescens, NO.162, read-out: Minimum Inhibitory Concentration
Procedure: as §1, §2

[1] = NIHJJC1, S. aureus NIHJJC-1, 10^6 CFU/ml, read-out: Minimum Inhibitory Concentration

| Compound | MIC (A. calcoaceticus No. 14) [µg/mL] | MIC (C. freundii No. 7) [µg/mL] | MIC (E. cloaceae Nek 39) [µg/mL] | MIC (E. coli C/Rms149) [µg/mL] | MIC (E. coli CSH2) [µg/mL] | MIC (E. coli CSH) [µg/mL] | MIC (E. coli ML1410/Rte16) [µg/mL] | MIC (E. coli NIHJJC-2) [µg/mL] | MIC (E. coli W3630/Rms212) [µg/mL] | MIC (E. coli W3630/Rms213) [µg/mL] | MIC (K. pneumoniae No. 42) [µg/mL] | MIC (P. aeruginosa AK109) [µg/mL] | MIC (P. aeruginosa AKR17) [µg/mL] | MIC (P. cepacia 23) [µg/mL] | MIC (P. mirabilis JY10) [µg/mL] | MIC (P. vulgaris No. 33) [µg/mL] | MIC (P. vulgaris OB1043) [µg/mL] | MIC (S. aureus JS-1) [µg/mL] | MIC (S. aureus NIHJJC-1; [1]) [µg/mL] | MIC (S. marcescens No. 16-2) [µg/mL] | also measured |
| --- | --- | --- | --- | --- | --- | --- | --- | --- | --- | --- | --- | --- | --- | --- | --- | --- | --- | --- | --- | --- | --- |
| CC(C)(ON=C(C(=O)NC1C(=O)N2C(C(=O)[O-])=C(C[N+]3(C)CCc4cc(O)c(O)cc4C3)CSC12)c1csc(N)n1)C(=O)O (stereo not shown) [Ex. 15, 7-[(Z)-2-(2-aminothiazol-4-yl)-2-(1-carboxy-1-methylethoxyimino)acetamido]-3-(6,7-dihydroxy-2-methyl-1,2,3,4-tetrahydro-2-isoquinolinium)methyl-3-cephem-4-carboxylate] | 0.78 (≈ 1.21 µM) | 0.2 (≈ 0.309 µM) | < 0.006 | 0.0125 (≈ 0.0193 µM) | 0.025 (≈ 0.0387 µM) | 0.05 (≈ 0.0773 µM) | 0.025 (≈ 0.0387 µM) | 0.025 (≈ 0.0387 µM) | 0.025 (≈ 0.0387 µM) | 0.025 (≈ 0.0387 µM) | 0.05 (≈ 0.0773 µM) | 0.025 (≈ 0.0387 µM) | 0.05 (≈ 0.0773 µM) | 0.025 (≈ 0.0387 µM) | 0.1 (≈ 0.155 µM) | 1 (≈ 1.55 µM) | 0.05 (≈ 0.0773 µM) | 100 (≈ 155 µM) | 12.5 (≈ 19.3 µM) | 0.39 (≈ 0.603 µM) | MIC (P. maltophilia IID 1275): 3.12 µg/mL (≈ 4.82 µM) |
| CC(C)(O/N=C(\C(=O)NC1C(=O)N2C(C(=O)[O-])=C(C[N+]3(C)CCc4ccccc4C3)CSC12)c1csc(N)n1)C(=O)O (single isomer, unassigned) [Isomer A of Ex. 8-E, 7-[(Z)-2-(2-aminothiazol-4-yl)-2-(1-carboxy-1-methylethoxyimino)acetamido]-3-(2-methyl-1,2,3,4-tetrahydro-2-isoquinolinium)methyl-3-cephem-4-carboxylate] | 25 (≈ 40.7 µM) | 1.56 (≈ 2.54 µM) | 1.56 (≈ 2.54 µM) | 0.2 (≈ 0.325 µM) | 0.1 (≈ 0.163 µM) | 0.1 (≈ 0.163 µM) | 0.2 (≈ 0.325 µM) | 0.2 (≈ 0.325 µM) | 0.39 (≈ 0.634 µM) | 0.39 (≈ 0.634 µM) | 0.78 (≈ 1.27 µM) | – | 25 (≈ 40.7 µM) | 6.25 (≈ 10.2 µM) | 0.2 (≈ 0.325 µM) | 0.1 (≈ 0.163 µM) | 0.1 (≈ 0.163 µM) | > 25 | 6.25 (≈ 10.2 µM) | 3.12 (≈ 5.08 µM) | Minimum Inhibitory Concentration (P. aeruginosa AK109): 6.25 µg/mL |
| CO/N=C(\C(=O)NC1C(=O)N2C(C(=O)[O-])=C(C[N+]3(C)CCc4cc(OC)c(OC)cc4C3)CSC12)c1csc(N)n1 (stereo not shown) [Ex. 2-E, 7-[(Z)-2-(2-aminothiazol-4-yl)-2-methoxyiminoacetamido]-3-(6,7-dimethoxy-2-methyl-1,2,3,4-tetrahydro-2-isoquinolinium)methyl-3-cephem-4-carboxylate] | > 25 | 12.5 (≈ 20.7 µM) | 12.5 (≈ 20.7 µM) | 0.78 (≈ 1.29 µM) | 0.2 (≈ 0.332 µM) | 1.56 (≈ 2.59 µM) | 0.78 (≈ 1.29 µM) | 0.78 (≈ 1.29 µM) | 1.56 (≈ 2.59 µM) | 3.12 (≈ 5.18 µM) | 1.56 (≈ 2.59 µM) | 25 (≈ 41.5 µM) | > 25 | – | 3.12 (≈ 5.18 µM) | 1.56 (≈ 2.59 µM) | 3.12 (≈ 5.18 µM) | 12.5 (≈ 20.7 µM) | – | > 25 | MIC (S. aureus NIHJJC-1; NIHJJC1, read-out: Minimum Inhibitory Concentration): 1.56 µg/mL (≈ 2.59 µM) |
| CO/N=C(\C(=O)NC1C(=O)N2C(C(=O)[O-])=C(C[N+]3(C)CCc4ccccc4C3)CSC12)c1csc(N)n1 (stereo not shown) [Ex. 1-B, 7-[(Z)-2-(2-aminothiazol-4-yl)-2-methoxyiminoacetamido]-3-(2-methyl-1,2,3,4-tetrahydro-2-isoquinolinium)methyl-3-cephem-4-carboxylate] | 25 (≈ 46.1 µM) | 1.56 (≈ 2.87 µM) | 1.56 (≈ 2.87 µM) | 0.1 (≈ 0.184 µM) | 0.05 (≈ 0.0921 µM) | 0.2 (≈ 0.369 µM) | – | 0.1 (≈ 0.184 µM) | 0.2 (≈ 0.369 µM) | 1.56 (≈ 2.87 µM) | 0.2 (≈ 0.369 µM) | 6.25 (≈ 11.5 µM) | > 25 | – | 0.78 (≈ 1.44 µM) | 0.2 (≈ 0.369 µM) | 0.78 (≈ 1.44 µM) | 3.12 (≈ 5.75 µM) | 0.78 (≈ 1.44 µM) | 6.25 (≈ 11.5 µM) | – |
| CCO/N=C(\C(=O)NC1C(=O)N2C(C(=O)[O-])=C(C[N+]3(C)CCc4ccccc4C3)CSC12)c1csc(N)n1 (stereo not shown) [Ex. 7-D, 7-[(Z)-2-(2-aminothiazol-4-yl)-2-ethoxyiminoacetamido]-3-(2-methyl-1,2,3,4-tetrahydro-2-isoquinolinium)methyl-3-cephem-4-carboxylate] | 25 (≈ 44.9 µM) | 3.12 (≈ 5.6 µM) | 3.12 (≈ 5.6 µM) | 0.39 (≈ 0.701 µM) | 0.1 (≈ 0.18 µM) | 0.2 (≈ 0.359 µM) | 0.39 (≈ 0.701 µM) | 0.39 (≈ 0.701 µM) | 0.78 (≈ 1.4 µM) | 0.78 (≈ 1.4 µM) | 0.78 (≈ 1.4 µM) | 6.25 (≈ 11.2 µM) | > 25 | 6.25 (≈ 11.2 µM) | 3.12 (≈ 5.6 µM) | 0.39 (≈ 0.701 µM) | 0.78 (≈ 1.4 µM) | 6.25 (≈ 11.2 µM) | 0.39 (≈ 0.701 µM) | 6.25 (≈ 11.2 µM) | – |
| CC(C)(O/N=C(\C(=O)NC1C(=O)N2C(C(=O)[O-])=C(C[N+]3(C)CCc4ccccc4C3)CSC12)c1csc(N)n1)C(=O)O (single isomer, unassigned) [Isomer B of Ex. 8-E, 7-[(Z)-2-(2-aminothiazol-4-yl)-2-(1-carboxy-1-methylethoxyimino)acetamido]-3-(2-methyl-1,2,3,4-tetrahydro-2-isoquinolinium)methyl-3-cephem-4-carboxylate] | – | – | – | – | – | – | – | – | – | – | – | – | – | – | – | – | – | – | – | – | Minimum Inhibitory Concentration (A. calcoaceticus No. 14; A. calcoaceticus No. 14): > 25 µg/mL; Minimum Inhibitory Concentration (C. freundii No. 7): 1.56 µg/mL; Minimum Inhibitory Concentration (E. cloaceae Nek 39): 3.12 µg/mL; Minimum Inhibitory Concentration (E. coli C/Rms149; E. coli C/Rms149): 0.39 µg/mL; Minimum Inhibitory Concentration (E. coli CSH2): 0.1 µg/mL; Minimum Inhibitory Concentration (E. coli CSH): 0.2 µg/mL; Minimum Inhibitory Concentration (E. coli ML1410/Rte16; E. coli ML1410/Rte16): 0.39 µg/mL; Minimum Inhibitory Concentration (E. coli NIHJJC-2; E. coli NIHJJC-2): 0.39 µg/mL; Minimum Inhibitory Concentration (E. coli W3630/Rms212; E. coli W3630/Rms212): 0.78 µg/mL; Minimum Inhibitory Concentration (E. coli W3630/Rms213; E. coli W3630/Rms213): 0.78 µg/mL; Minimum Inhibitory Concentration (K. pneumoniae No. 42): 0.78 µg/mL; Minimum Inhibitory Concentration (P. aeruginosa AK109): 3.12 µg/mL; Minimum Inhibitory Concentration (P. aeruginosa AKR17; P. aeruginosa AKR17): > 25 µg/mL; Minimum Inhibitory Concentration (P. cepacia 23): 6.25 µg/mL; Minimum Inhibitory Concentration (P. mirabilis JY10): 0.2 µg/mL; Minimum Inhibitory Concentration (P. vulgaris No. 33): 0.1 µg/mL; Minimum Inhibitory Concentration (P. vulgaris OB1043; P. vulgaris OB1043): 0.2 µg/mL; Minimum Inhibitory Concentration (S. aureus JS-1): > 25 µg/mL; Minimum Inhibitory Concentration (S. aureus NIHJJC-1; S. aureus NIHJJC-1, 10^6 CFU/ml): 12.5 µg/mL; Minimum Inhibitory Concentration (S. marcescens No. 16-2): 3.12 µg/mL |
